# Literature values, collected in patent publication US8697141B2, “Method and composition for preventing and healing osteonecrosis of the jaw” (Micropure, Inc., priority 2008, dated 2014).
# Read-outs that look alike come from different tables or passages of the source.
# Legend:
# ONJ [1] = conditions: oral users, 208 patients
# fibroblasts = conditions: dose and time dependent
# endothelial cells = conditions: dose and time dependent
# osteoblasts [2] = conditions: dose and time dependent
# [3] = tested on: periodontal ligament cells; conditions: chlorhexidine at 0.12%
# ONJ [4] = conditions: 0.12% chlorhexidine; out of 24 patients
# [5] = tested on: human osteoblast-like cells; conditions: high concentrations over a prolonged time interval
# osteoblasts [6] = conditions: chlorhexidine at 0.12%
# [7] = tested on: human gingival fibroblasts; conditions: chlorhexidine at 0.12%
# [8] = tested on: human gingival fibroblasts; conditions: 0.05 mM
# C. albicans = conditions: time and dose dependent
# bone vascularity = conditions: rats
# [9] = tested on: capillary neoangiogenesis
# keratinocytes = conditions: low concentrations
# [10] = tested on: human gingival fibroblasts; conditions: low concentrations
# DUWL biofilms = conditions: after 5 days of treatment
# bacteria = conditions: exposures as short as 10 seconds
# [11] = in vivo
# Bacteroides gingivalis = conditions: 200 ppm, at several time points and different pH
# S. mutans = conditions: 200 ppm, within 10 seconds of application
molecule,measurement,setting,value
NCCCC(O)(P(=O)(O)O)P(=O)(O)O [alendronate],ONJ prevalence rate,ONJ [1],4%
N=C(NCCCCCCNC(=N)NC(=N)Nc1ccc(Cl)cc1)NC(=N)Nc1ccc(Cl)cc1.O=C(O)[C@H](O)[C@@H](O)[C@H](O)[C@H](O)CO.O=C(O)[C@H](O)[C@@H](O)[C@H](O)[C@H](O)CO [chlorhexidine digluconate],apoptosis and necrosis,fibroblasts,induced apoptosis and led to necrosis
same,apoptosis and necrosis,endothelial cells,induced apoptosis and led to necrosis
same,apoptosis and necrosis,osteoblasts [2],induced apoptosis and led to necrosis
[H]/N=C(\N/C(=N/[H])NCCCCCCNC(=N)NC(=N)Nc1ccc(Cl)cc1)Nc1ccc(Cl)cc1 [chlorhexidine],LDH release compared with controls,[3],elevated and significant LDH release
same,patients with ONJ progression,ONJ [4],13 patients
same,patients with ONJ resolution,ONJ [4],3 patients
same,patients with no change in ONJ status,ONJ [4],8 patients
same,cell survival,[5],adverse effect on the survival
same,LDH release compared with controls,osteoblasts [6],elevated and significant LDH release
same,LDH release compared with controls,[7],elevated and significant LDH release
[O][Cl+][O-] [chlorine dioxide],induction of apoptosis,[8]; 0.1 mM and 0.5 mM ClO2,not to induce apoptosis significantly
same,potassium leakage,C. albicans,marked increase
OO [hydrogen peroxide],induction of apoptosis,[8]; 1.0 mM,induced apoptosis at all concentrations tested
NCCC(O)(P(=O)(O)O)P(=O)(O)O [pamidronate],bone vascularity,bone vascularity,reduce bone vascularity
same,new formation of capillaries from blood vessels,[9],inhibit the new formation of capillaries from blood vessels
O=P(O)(O)C(O)(Cn1ccnc1)P(=O)(O)O [zoledronic acid],apoptosis of oral mucosal cells,keratinocytes,gene-regulated induced apoptosis
same,apoptosis of oral mucosal cells,[10],gene-regulated induced apoptosis
stabilized chlorine dioxide,LDH release compared with controls,[3],did not increase the release of LDH
same,heterotrophic plate count (HPC) value,DUWL biofilms,0
same,LDH release compared with controls,osteoblasts [6],did not increase the release of LDH
same,reduction in bacteria,bacteria,dramatic reduction in bacteria
same,VSCs in expired mouth air,[11],remarkable decrease in VSCs
same,in vitro kill,Bacteroides gingivalis,100%
same,in vitro kill rate,S. mutans,99%
same,LDH release compared with controls,[7],did not increase the release of LDH
